Measurements from paper PMC8122671, “New Succinimides with Potent Anticancer Activity: Synthesis, Activation of Stress Signaling Pathways and Characterization of Apoptosis in Leukemia and Cervical Cancer Cells” (International Journal of Molecular Sciences, 2021).
pIC50: −log10 of the molar value. Counter-ions that a name gives are not always drawn.

What was measured:
[1] = tested on: K562 (myelogenous leukemia cell line); assay: MTT cytotoxicity assay, K562; format: cell-based, human; settings: Homo sapiens, K562, 48 h, 48 h incubation; average (SD) of three experiments; read-out: IC50 K562
Experimental: (§1) The cytotoxicity of new derivatives of dicarboximides was tested in HeLa (cervix carcinoma cell line), K562 (myelogenous leukemia cell line), MOLT-4 (Human T-Lymphoid Cell Line), and HUVEC (normal endothelial) cells. First, the viability of cells was determined after 48 h incubation with the screened compounds used at the concentration of 100 μM (data not shown). […] Cells exposed to 1% DMSO (as vehicle) served as the control with 100% survival.
(§2) Human umbilical vein endothelial cells (Life Technologies, Carlsbad, CA, USA) were cultured (according to the manufacturer’s instructions) in Medium 200 containing low serum growth supplement; 1 × 10^4 cells were seeded on each well on a 96-well plate (Nunc, Roskilde, Denmark). The HeLa (human cervix carcinoma), K562, and MOLT-4 (leukemia) cells were cultured in RPMI 1640 medium supplemented with antibiotics and 10% fetal calf serum in a 5% CO2–95% air atmosphere; 7 × 10^3 cells were seeded on each well on a 96-well plate (Nunc). Twenty-four hours later, cells were exposed to the test compounds for additional 48 hours. Stock solutions of test compounds were freshly prepared in DMSO. The final concentrations of the compounds tested in the cell cultures were 2 × 10^−1, 1 × 10^−1, 5 × 10^−2, 1 × 10^−2, 1 × 10^−3, and 1 × 10^−4 mM. The concentration of DMSO in the cell culture medium was 1%. The values of IC50 (the concentration of test compound required to reduce the cell survival fraction to 50% of the control) were calculated from dose–response curves and used as a measure of cellular sensitivity to a given treatment. The cytotoxicity of all compounds was determined by the MTT [3-(4,5-dimethylthiazol-2-yl)-2,5-diphenyltetrazolium bromide; Sigma, St. Louis, MO, USA] assay. Briefly, after 24 or 48 h of incubation with drugs, the cells were treated with the MTT reagent, and incubation was continued for 2 h. MTT-formazan crystals were dissolved in 20% SDS and 50% DMF at pH 4.7, and absorbance was read at 570 and 650 nm on a microplate reader FLUOstar Omega (BMG Labtech, Offenburg, Germany). As a control (100% viability), we used cells grown in the presence of the vehicle (1% DMSO) only.

[2] = Lipophilicity (logkw) by reversed-phase chromatography (RP-HPLC); format: physicochemical; settings: for logkw (Experimental): extrapolated to pure water; for logkw (Table S2): intercept of logk vs methanol fraction, n = 4
Excerpt: The main goal of the synthetic part was the synthesis of new derivatives of dicarboximides with decreased lipophilicity in comparison to the lead compounds, i.e., Ia–Ie and II. To reduce the lipophilicity of the new dicarboximides, a hydroxyalkyl chain connected with an aliphatic amine was introduced to the imides (Scheme 1). At the same time, the imide scaffold in derivatives from group 2 and 3 was the same as in lead compounds Ia–Ie and II, respectively (Figure 1). The structure of the imide was changed in derivatives 1b–1g. The lipophilicity of new derivatives was calculated using the Osiris Property Explorer program. For some compounds, lipophilicity was determined experimentally by a reversed-phase chromatography (detailed description is given in Materials and Methods and in the Supplementary Data, Table S2). Table 1 summarizes the calculated (clogP) and experimental (logkw) parameters of the lipophilicity of new derivatives.
The reversed-phase high-performance liquid chromatography (RP-HPLC) analysis was performed on a Merck–Hitachi LaChrom Elite System (Merck, Darmstadt, Germany) with diode array detector L-2455, thermostat L-2300, pump L-2130, and autosampler L-2200 and with the Waters XTerra MS RP-18 (3.5 μm, 150 × 4.6 mm) chromatographic column (Waters, Milford, MA, USA) as the stationary phase. The mobile phase consisted of methanol, water, and 0.1% (v/v) formic acid and was degassed by the use of the built-in membrane degasser. The methanol gradient grade for HPLC was purchased from Merck (Merck, Darmstadt, Germany) and formic acid from Polish Reagents (Polish Reagents, Gliwice, Poland); double-distilled water was used. Then, 5 μL of methanolic solutions (0.1%; m/v) of selected samples were applied to the chromatographic column by the use of an autosampler Hitachi L-2200 (LaChrom Elite, Hitachi-Merck, Darmstadt, Germany). The analysis was performed with the flow rate of 0.7 mL min^−1 in isocratic mode using various concentrations of organic modifier (methanol) in binary polar mobile phases; percentages of methanol in water were 45–70% (%, v/v) and changed by 5% per step. Chromatograms were detected at 254 nm and the temperature of the column was 25 °C. All experiments were repeated in triplicate, and the final results were taken to be the arithmetic means. Dead time was measured by the use of uracil (Calbiochem. Merck, Darmstadt, Germany). Statistical and regression analyses were performed using Statistica (ver. 13.3 for Windows). The chromatographic lipophilicity parameters ( logkW ) for selected samples were obtained by the extrapolation of the retention parameter logk to pure water, according to Equation (1):(1) logk=logkw−S·ϕ; where logkW is the value of the retention factor of a substance in pure water, S is the slope of the regression curve, and ϕ is the concentration of the organic modifier. The values of logk were calculated based on the raw HPLC data using the formula (2):(2) logk=logtR−t0/t0; where tR is the retention time and t0 is the dead retention time (determined for uracil).
The chromatographic lipophilicity parameters (logkௐ ) for selected samples were ob‐ tained by the extrapolation of the retention parame te r logk to pure water, according to […]
where logkௐ is the value of the retention factor of a substance in pure water, S is the slope of the regression curve, and φ is the concentration of the organic modifier. The values of logk were ca lcula ted based on the raw HPLC data using the formula: […]
logk ൌ log ሺ௧ೃ ି ௧బ௧బ ሻ (2) where tோ is the retention time and t଴ is the dead retention time (determined for ura‐ cil). The goodness of fit of the equation (1) to the experimental data was classified accord‐ ing to Jaffe (Jaffe, H. H. A Reexamination of the Hammet Equation. Chem. Rev. 1953, 53, In our RP‐HPLC experiments, the goodness of fit of the equation to the experi‐ mental data are excellent in most ca ses (r > 0.99). The F statistic val ues are, in all cases, […]

[3] = tested on: HeLa (human cervix carcinoma) cells; assay: MTT cytotoxicity assay, HeLa; format: cell-based; settings: 48 h incubation, average (SD) of three experiments, read-out: IC50 HeLa
Experimental: as §1, §2

[4] = tested on: HUVEC (normal endothelial) cells; assay: MTT cytotoxicity assay, HUVEC; format: cell-based; settings: Homo sapiens, 48 h incubation, average (SD) of three experiments, read-out: IC50 HUVEC
Experimental: as §1, §2

[5] = tested on: MOLT-4 (Human T-Lymphoid Cell Line); assay: MTT cytotoxicity assay, MOLT-4; format: cell-based; settings: MOLT-4, 48 h incubation, average (SD) of three experiments, read-out: IC50 MOLT-4
Experimental: as §1, §2

melting point [°C] | logkw (Experimental) [2] | logkw (Table S2) [2] | SMILES | pIC50 [1] | pIC50 [3] | pIC50 [4] | pIC50 [5]
268 to 270 |  |  | O=C1C2C(C(=O)N1CC(O)CN1CCCCC1)C1(c3ccccc3)CC2(c2ccccc2)C(c2ccccc2)=C1c1ccccc1 (stereo not shown) (as salt: HCl) [3f, 4-[2-hydroxy-3-(piperidin-1-yl)propyl]-1,7,8,9-tetraphenyl-4-azatricyclo[5.2.1.0^2,6]dec-8-ene-3,5-dione] |  |  |  | 
214 to 216 |  |  | CC12C(=O)C(C)(C(c3ccccc3)=C1c1ccccc1)C1C(=O)N(CCN3CCCCC3)C(=O)C12 (stereo not shown) (as salt: HCl) [1i, 4-[2-(piperidin-1-yl)ethy]-1,7-dimethyl-8,9-diphenyl-4-azatricyclo[5.2.1.0^2,6]dec-8-ene-3,5,10-trione] |  |  |  | 
92 to 110 |  |  | CCCCN(CCCC)CC(O)CN1C(=O)C2C(C1=O)C1(CC)C(=O)C2(CC)C(c2ccccc2)=C1c1ccccc1 (stereo not shown) (as salt: HCl) [2e, 4-[3-(dibutylamino)-2-hydroxypropyl]-1,7-diethyl-8,9-diphenyl-4-azatricyclo[5.2.1.0^2,6]dec-8-ene-3,5,10-trione] |  |  |  | 
 | 6.28 | 6.2759 | O=C1C2C(C(=O)N1CC(O)CN1CCOCC1)C1(c3ccccc3)CC2(c2ccccc2)C(c2ccccc2)=C1c1ccccc1 (stereo not shown) [3g, 4-[-2-hydroxy-3-(morpholin-4-yl)propyl]-1,7,8,9-tetraphenyl-4-azatricyclo[5.2.1.0^2,6]dec-8-ene-3,5-dione] | 4.51 | 3.92 | 4.77 | 5.28
 | 4.87 | 4.8734 | CCN(CC)CC(O)CN1C(=O)C2C(C1=O)C1(C)C(=O)C2(C)C(c2ccccc2)=C1c1ccccc1 (stereo not shown) [1d, 4-[3-(diethylamino)-2-hydroxypropyl]-1,7-dimethyl-8,9-diphenyl-4-azatricyclo[5.2.1.0^2,6]dec-8-ene-3,5,10-trione] | 4.41 | 4.23 | 4.66 | 4.43
 | 4.98 | 4.9763 | CCC12C(=O)C(CC)(C(c3ccccc3)=C1c1ccccc1)C1C(=O)N(CC(O)CN3CCOCC3)C(=O)C12 (stereo not shown) [2g, 4-[-2-hydroxy-3-(morpholin-4-yl)propyl]-1,7-diethyl-8,9-diphenyl-4-azatricyclo[5.2.1.0^2,6]dec-8-ene-3,5,10-trione] | 4.70 | 4.64 | 4.77 | 4.74
 | 5.08 | 5.0846 | CCNCC(O)CN1C(=O)C2C(C1=O)C1(CC)C(=O)C2(CC)C(c2ccccc2)=C1c1ccccc1 (stereo not shown) [2b, 4-[3-(ethylamino)-2-hydroxypropyl]-1,7-diethyl-8,9-diphenyl-4-azatricyclo [5.2.1.0^2,6]dec-8-ene-3,5,10-trione] | 5.10 | 4.59 | 5.47 | 4.85
 | 4.78 | 4.7844 | CCNCC(O)CN1C(=O)C2C(C1=O)C1(C)C(=O)C2(C)C(c2ccccc2)=C1c1ccccc1 (stereo not shown) [1b, 4-[3-(ethylamino)-2-hydroxypropyl]-1,7-dimethyl-8,9-diphenyl-4-azatricyclo [5.2.1.0^2,6]dec-8-ene-3,5,10-trione] | 4.49 | 4.52 | 4.70 | 5.15
 | 4.91 | 4.9077 | CC(C)(C)NCC(O)CN1C(=O)C2C(C1=O)C1(C)C(=O)C2(C)C(c2ccccc2)=C1c1ccccc1 (stereo not shown) [1c, 4-[3-(tert-butylamino)-2-hydroxypropyl]-1,7-dimethyl-8,9-diphenyl-4-azatricyclo [5.2.1.0^2,6]dec-8-ene-3,5,10-trione] | 4.55 | 4.59 | 4.64 | 4.55
 |  |  | CC12C(=O)C(C)(C(c3ccccc3)=C1c1ccccc1)C1C(=O)N(CCN3CCCCC3)C(=O)C12 (stereo not shown) [1i, 4-[2-(piperidin-1-yl)ethy]-1,7-dimethyl-8,9-diphenyl-4-azatricyclo[5.2.1.0^2,6]dec-8-ene-3,5,10-trione] | 4.52 | 4.28 | 4.64 | 4.82
